Patent publication US20050014268A1, “Genetic transformation using a PARP inhibitor” (Bayer BioScience NV, priority 1995, published 2005)

Experiments:
Type in all cases: cell-based
[1] = tested on: Hypocotyl explants of Brassica napus; assay: Agrobacterium mediated transformation of oilseed rape hypocotyl explants with pTHW107, niacinamide for 4 days prior to infection
Method: (§1) Hypocotyl explants of Brassica napus were obtained, cultured and transformed essentially as described by De Block et al, 1989, Plant Physiol. 914:694-701 except for the following modifications: • hypocotyl explants were precultured for 3 days on A2 medium (MS, 0.5 g/l Mes (pH 5.7), 1.2% glucose, 0.5% agarose, 1 mg/l 2,4-D, 0.25 mg/l naphthalene acetic acid (NAA), 1 mg/l 6-benzylaminopurine (BAP)), and then transferred to the A2 medium with or without niacinamide for another 4 days. • infection medium A3 was MS, 0.5 g/l Mes (pH 5.7), 1.2% glucose, 0.1 mg/l NAA, 0.75 mg/l BAP, 0.01 mg/l giberellinic acid (GA3) • selection medium A5 was 0.5 g/l Mes (pH 5.7), 1.2% glucose, 40 mg/l adenine.SO4, 0.5 g/l polyvinyl-polypyrrolidone (PVP), 0.5% agarose, 0.1 mg/l NAA, 0.75 mg/l BAP, 0.01 mg/l GA3, 250 mg/l carbenicillin, 250 mg/l triacillin, 5 mg/l AgNO3. • regeneration medium A6 was MS, 0.5 g/l Mes (pH 5.7), 2% sucrose, 40 mg/l adenine.SO4, 0.5 g/l PVP, 0.5% agarose, 0.0025 mg/l BAP, 250 mg/l triacillin. • healthy shoots were transferred to 1 liter vessels containing rooting medium which was either A8 or A9; A8 consists of 100-130 ml half concentrated MS, 1% sucrose (pH 5.0), 1 mg/l isobutyric acid (IBA), 100 mg/l triacillin added to 300 ml perlite (final pH 6.2); A9 consists of half concentrated MS, 1.5% sucrose (pH 5.8) solidified with agar (0.6%)
Hypocotyl explants (with or without niacinamide treatment) were infected with Agrobacterium tumefaciens strain C58C1Rif carrying T-DNA vector pTHW107 and a helper Ti-plasmid pMP90 (Koncz and Schell, 1986, Mol.Gen.Genet. 204:383-396)(or a derivative thereof).
Plasmid pTHW107 is a vector carrying a T-DNA comprising the following chimeric genes: • PTA29-barnase-3′g7 • PSSU-bar-3′nos • in which PTA29 is the promoter of the TA29 gene of tobacco (EP 344029) and PSSU is the promoter of the gene of Arabidopsis thaliana encoding the small subunit of Rubisco. The complete sequence of the T-DNA of pTHW107 is presented in SEQ ID No 1.
Where required niacinamide (250 mg/l) was added to the media for the last 4 days prior to infection with Agrobacterium. […] Five plants regenerated from the calli obtained by transformation including niacinamide and five plants regenerated from the calli obtained by conventional transformation without niacinamide inclusion, were analyzed by Southern hybridization to determine the copy number of the transgenes, and were further analyzed for reproductive phenotype.

[2] = tested on: Brassica napus hypocotyl explants; assay: Tissue culture of Brassica napus hypocotyl explants on A5 medium containing niacinamide
Method: as §1, with “and then transferred to the A2 medium with or without niacinamide for another 4 days. • infection medium A3 was” left out

Wheat embryogenic callus = assay: Tissue culture of wheat embryogenic callus on W2 medium containing niacinamide
Method: After the one day incubation the capacity of the transformed and control tissues to reduce 2,3,5-triphenyltetrazolium chloride (TTC) is measured e.g. by the following procedure which is modified from Towill and Mazur (supra): • incubate the tissues for 1 to 4 hours in K-phosphate buffer (pH 7.4) containing 10 mM TTC and 0.1% Tween20. […] The O.D. of the control extract is subtracted from the OD of the TTC-reacted extracts. In the above conditions 0.1 mM reduced TTC corresponds to an OD485 of 0.214 or OD545 of 1.025 (light path 1 cm). • the reducing capacity of the transformed plant line is compared to that of the control line. Wheat embryogenic callus was cultured on W2 medium (see Example 2).

[3] = 250 mg/l niacinamide for the last 4 days prior to infection
[4] = Before 250, regenerated plants Id. No. 1-5
[5] = after 4-5 days of incubation with niacinamide

NC(=O)c1cccnc1 [niacinamide]
copy number in plants regenerated from transformed calli [1, 3]: low copy number
variation in the expression profile of the transgenes [1, 3]: less variation
Phenotype of the F1-progeny (vegetative/reproductive) ([1]; Before 250, pollinated with untransformed N90-740, phosphinotricin resistant F1-progeny): normal/sterile
Reproductive phenotype (male sterility) [1, 4]: sterile
Vegetative phenotype [1, 4]: normal
anthocyanin production in tissue culture ([2]; A5 medium containing 250 mg/l niacinamide): no anthocyanin was produced
concentration of dehydroascorbate in the explants [2, 5]: drastically decreased
concentration of hydroxyl free radical in the explants [2, 5]: drastically decreased
percentage of cultured cells in G2 phase of the cell cycle ([2]; after a 4 day incubation in niacinamide containing medium, considerably increased): up to 45 % of all cells in the culture
growth of the tissue (rate relative to the normal rate) (Wheat embryogenic callus; 250 mg/l (approx. 2 mM) niacinamide in W2 medium, growth slowed after 4 days, rate after 4 weeks): approximately 30%
viability of the tissue (Wheat embryogenic callus; 250 mg/l niacinamide in W2 medium, at least one month): remained viable for extended periods of time
TTC-reducing capacity of the tissue (Wheat embryogenic callus; [5]): substantially decreased
growth after removal of niacinamide from the medium (Wheat embryogenic callus; niacinamide subsequently removed from the medium): started to grow normally again
